The data set relates to CCRIS mutagenicity, Ames/micronucleus/aberration tests. The data set is described as follows: CCRIS mutagenicity studies.
[1] abbreviates: Test System: AMES SALMONELLA TYPHIMURIUM, Strain/Indicator: TA98, Metabolic Activation: NONE, Method: STANDARD PLATE.
Setting [2] is: Test System: AMES SALMONELLA TYPHIMURIUM, Strain/Indicator: TA98, Metabolic Activation: RAT, LIVER, S-9, AROCLOR 1254, Method: STANDARD PLATE.
The mark [3] stands for this setting: Test System: AMES SALMONELLA TYPHIMURIUM, Strain/Indicator: TA100, Metabolic Activation: NONE, Method: STANDARD PLATE.
Where [4] appears, read: Test System: MOUSE LYMPHOMA, Strain/Indicator: L5178Y (TK+/TK-), Metabolic Activation: NONE, Method: SUSPENSION/PLATE.
The mark [5] stands for this setting: Test System: MOUSE LYMPHOMA, Strain/Indicator: L5178Y (TK+/TK-), Metabolic Activation: RAT, LIVER, S-9, AROCLOR 1254, Method: SUSPENSION/PLATE.
The mark [6] stands for this setting: Test System: AMES SALMONELLA TYPHIMURIUM, Strain/Indicator: TA98, Metabolic Activation: NONE, Method: PREINCUBATION
Setting [7] is: Test System: AMES SALMONELLA TYPHIMURIUM, Strain/Indicator: TA100, Metabolic Activation: NONE, Method: PREINCUBATION

Active and inactive are the calls of the source. How the calls were made is not given here.

Here are results for 7 molecules from PubChem BioAssay AID1259407 (Chemical Carcinogenesis Research Information System (CCRIS), 2018).

On to `O=[N+]([O-])c1ccc2cc3c(cc2c1)C=C[C@@H](O)[C@@H]3O`, for which the mutagenic call is “active; positive” under setting [1] and “active; positive” under setting [2].

`CNC(=O)N(C)C(=O)ON`: the mutagenic call is “active; positive” under setting [1] and “active; positive” under setting [3].

Regarding `C/C=C(\C)C=O`, the mutagenic call is “active; positive. reevaluation of results: inconclusive” under setting [4] and “inactive; negative. reevaluation of results: negative” under setting [5].

Regarding `NNc1ccccc1[N+](=O)[O-]`, the mutagenic call under setting [6] is “active; positive”; the mutagenic call (Test System: AMES SALMONELLA TYPHIMURIUM, Strain/Indicator: TA98, Metabolic Activation: RAT, LIVER, S-9, KANECHLOR 500, Method: PREINCUBATION) is “active; positive”; the mutagenic call under setting [7] was “active; positive”.

Regarding `CCc1ccco1`, the mutagenic call runs as follows: (Test System: AMES SALMONELLA TYPHIMURIUM, Strain/Indicator: TA98, Metabolic Activation: HAMSTER, LIVER, S-9, AROCLOR 1254, Method: STANDARD PLATE) “inactive; negative”; under setting [1], “inactive; negative”; under setting [2], “inactive; negative”; (Test System: AMES SALMONELLA TYPHIMURIUM, Strain/Indicator: TA100, Metabolic Activation: HAMSTER, LIVER, S-9, AROCLOR 1254, Method: STANDARD PLATE) “inactive; negative”; under setting [3], “inactive; negative”; (Test System: AMES SALMONELLA TYPHIMURIUM, Strain/Indicator: TA100, Metabolic Activation: RAT, LIVER, S-9, AROCLOR 1254, Method: STANDARD PLATE) “inactive; negative”. Also, the mutagenic call (Test System: AMES SALMONELLA TYPHIMURIUM, Strain/Indicator: TA1535, Metabolic Activation: HAMSTER, LIVER, S-9, AROCLOR 1254, Method: STANDARD PLATE) was “inactive; negative”; the mutagenic call (Test System: AMES SALMONELLA TYPHIMURIUM, Strain/Indicator: TA1535, Metabolic Activation: NONE, Method: STANDARD PLATE) was “inactive; negative”; the mutagenic call (Test System: AMES SALMONELLA TYPHIMURIUM, Strain/Indicator: TA1535, Metabolic Activation: RAT, LIVER, S-9, AROCLOR 1254, Method: STANDARD PLATE) was “inactive; negative”; the mutagenic call (Test System: AMES SALMONELLA TYPHIMURIUM, Strain/Indicator: TA1537, Metabolic Activation: HAMSTER, LIVER, S-9, AROCLOR 1254, Method: STANDARD PLATE) is “inactive; negative”; the mutagenic call (Test System: AMES SALMONELLA TYPHIMURIUM, Strain/Indicator: TA1537, Metabolic Activation: NONE, Method: STANDARD PLATE) was “inactive; negative”; the mutagenic call (Test System: AMES SALMONELLA TYPHIMURIUM, Strain/Indicator: TA1537, Metabolic Activation: RAT, LIVER, S-9, AROCLOR 1254, Method: STANDARD PLATE) is “inactive; negative”. For the same molecule, the mutagenic call (Test System: AMES SALMONELLA TYPHIMURIUM, Strain/Indicator: TA1538, Metabolic Activation: HAMSTER, LIVER, S-9, AROCLOR 1254, Method: STANDARD PLATE) is “inactive; negative”; the mutagenic call (Test System: AMES SALMONELLA TYPHIMURIUM, Strain/Indicator: TA1538, Metabolic Activation: NONE, Method: STANDARD PLATE) was “inactive; negative”; the mutagenic call (Test System: AMES SALMONELLA TYPHIMURIUM, Strain/Indicator: TA1538, Metabolic Activation: RAT, LIVER, S-9, AROCLOR 1254, Method: STANDARD PLATE) was “inactive; negative”; the mutagenic call under setting [4] was “inactive; negative”; the mutagenic call under setting [5] is “active; positive”; the mutagenic call (Test System: Mouse lymphoma, Strain/Indicator: L5178Y (tk+/tk-), Metabolic Activation: Rat, Liver, S-9, Aroclor 1254, Method: Suspension/plate) was “active; equivocal (previous evaluation positive)”.

Consider `O=C1C=Cc2ccc3c4c(ccc1c24)C=CC3=O`, for which the mutagenic call (Test System: AMES SALMONELLA TYPHIMURIUM, Strain/Indicator: TA97, Metabolic Activation: NONE, Method: STANDARD PLATE) was “active; positive”; the mutagenic call (Test System: AMES SALMONELLA TYPHIMURIUM, Strain/Indicator: TA97, Metabolic Activation: RAT, LIVER, S-9, PCB, Method: STANDARD PLATE) is “active; positive”; the mutagenic call under setting [1] was “inactive; negative”; the mutagenic call (Test System: AMES SALMONELLA TYPHIMURIUM, Strain/Indicator: TA98, Metabolic Activation: RAT, LIVER, S-9, PCB, Method: STANDARD PLATE) was “inactive; negative”; the mutagenic call under setting [3] is “inactive; negative”; the mutagenic call (Test System: AMES SALMONELLA TYPHIMURIUM, Strain/Indicator: TA100, Metabolic Activation: RAT, LIVER, S-9, PCB, Method: STANDARD PLATE) is “inactive; negative”.

As for `Nc1cc(S(=O)(=O)O)c2cccc(S(=O)(=O)O)c2c1`, the mutagenic call is “inactive; negative” under setting [6]; “inactive; negative” (Test System: AMES SALMONELLA TYPHIMURIUM, Strain/Indicator: TA98, Metabolic Activation: RAT LIVER S-9, PHENOBARBITAL AND BETA-NAPHTHOFLAVONE, Method: PREINCUBATION); “inactive; negative” under setting [7]; “inactive; negative” (Test System: AMES SALMONELLA TYPHIMURIUM, Strain/Indicator: TA100, Metabolic Activation: RAT LIVER S-9, PHENOBARBITAL AND BETA-NAPHTHOFLAVONE, Method: PREINCUBATION); “inactive; negative” (Test System: AMES SALMONELLA TYPHIMURIUM, Strain/Indicator: TA1535, Metabolic Activation: NONE, Method: PREINCUBATION); “inactive; negative” (Test System: AMES SALMONELLA TYPHIMURIUM, Strain/Indicator: TA1535, Metabolic Activation: RAT LIVER S-9, PHENOBARBITAL AND BETA-NAPHTHOFLAVONE, Method: PREINCUBATION). Also, the mutagenic call was “inactive; negative” (Test System: AMES SALMONELLA TYPHIMURIUM, Strain/Indicator: TA1537, Metabolic Activation: NONE, Method: PREINCUBATION); “inactive; negative” (Test System: AMES SALMONELLA TYPHIMURIUM, Strain/Indicator: TA1537, Metabolic Activation: RAT LIVER S-9, PHENOBARBITAL AND BETA-NAPHTHOFLAVONE, Method: PREINCUBATION); “inactive; negative” (Test System: AMES SALMONELLA TYPHIMURIUM, Strain/Indicator: TA1538, Metabolic Activation: NONE, Method: PREINCUBATION); “inactive; negative” (Test System: AMES SALMONELLA TYPHIMURIUM, Strain/Indicator: TA1538, Metabolic Activation: RAT LIVER S-9, PHENOBARBITAL AND BETA-NAPHTHOFLAVONE, Method: PREINCUBATION); “inactive; negative” (Test System: E.COLI, Strain/Indicator: WP2UVRA, Metabolic Activation: NONE, Method: PREINCUBATION); “inactive; negative” (Test System: E.COLI, Strain/Indicator: WP2UVRA, Metabolic Activation: RAT LIVER S-9, PHENOBARBITAL AND BETA-NAPHTHOFLAVONE, Method: PREINCUBATION).
